Results published in ChEMBL document CHEMBL6114969, “Ultra-short lipopeptides containing d-amino acid exhibiting excellent stability and antibacterial activity against gram-positive bacteria” (Eur J Med Chem, 2025).
Converted amounts (≈) assume the structure as drawn. The source made the active and inactive calls. The rule behind the calls is not given here.

Experiments:
[1] = Retention time of compound by RP-HPLC analysis; assay type: physicochemical
Staphylococcus aureus [2] = experiment: Antibacterial activity against methicillin-resistant Staphylococcus aureus ATCC 33591 incubated for 18 to 24 hrs in presence of 1 mg/ml of chymotrypsin by broth microdilution method; assay type: functional; conditions: time 18-24 hrs
Staphylococcus aureus [3] = experiment: Antibacterial activity against methicillin-resistant Staphylococcus aureus ATCC 33591 incubated for 18 to 24 hrs in presence of 2 mg/ml of chymotrypsin by broth microdilution method; assay type: functional; conditions: time 18-24 hrs
Staphylococcus aureus [4] = experiment: Antibacterial activity against methicillin-resistant Staphylococcus aureus ATCC 33591 assessed as fold change in MIC incubated for 18 to 24 hrs in presence of 10 percent FBS by broth microdilution method; assay type: functional; conditions: time 18-24 hrs
Staphylococcus aureus [5] = experiment: Antibacterial activity against methicillin-resistant Staphylococcus aureus ATCC 33591 assessed as fold change in MIC incubated for 18 to 24 hrs in presence of NaCl by broth microdilution method; assay type: functional; conditions: time 18-24 hrs
Staphylococcus aureus [6] = experiment: Antibacterial activity against methicillin-resistant Staphylococcus aureus ATCC 33591 incubated for 18 to 24 hrs in presence of 2 mg/ml of trypsin by broth microdilution method; assay type: functional; conditions: time 18-24 hrs
Staphylococcus aureus [7] = experiment: Antibacterial activity against methicillin-resistant Staphylococcus aureus ATCC 33591 assessed as fold change in MIC incubated for 18 to 24 hrs in presence of 10 percent mouse serum by broth microdilution method; assay type: functional; conditions: time 18-24 hrs
Staphylococcus aureus [8] = experiment: Antibacterial activity against Staphylococcus aureus ATCC 29213 incubated for 18 to 24 hrs by broth microdilution method; assay type: functional; conditions: time 18-24 hrs
[9] = test system: Staphylococcus epidermidis; experiment: Antibacterial activity against Staphylococcus epidermidis ATCC 12228 incubated for 18 to 24 hrs by broth microdilution method; assay type: functional; conditions: time 18-24 hrs
[10] = Hemolytic activity in mouse Red blood cells incubated for 1 hr by absorbance based analysis; assay type: toxicity, cell-based; conditions: erythrocyte
Staphylococcus aureus [11] = experiment: Antibacterial activity against Staphylococcus aureus ATCC 25923 incubated for 18 to 24 hrs by broth microdilution method; assay type: functional; conditions: time 18-24 hrs
Staphylococcus aureus [12] = experiment: Antibacterial activity against methicillin-resistant Staphylococcus aureus ATCC 33591 incubated for 18 to 24 hrs by broth microdilution method; assay type: functional; conditions: time 18-24 hrs
Enterococcus faecalis = experiment: Antibacterial activity against Enterococcus faecalis ATCC 29212 incubated for 18 to 24 hrs by broth microdilution method; assay type: functional; conditions: time 18-24 hrs
Staphylococcus aureus [13] = experiment: Antibacterial activity against methicillin-resistant Staphylococcus aureus ATCC 33591 incubated for 18 to 24 hrs in presence of 0.5 mg/ml of trypsin by broth microdilution method; assay type: functional; conditions: time 18-24 hrs
Staphylococcus aureus [14] = experiment: Antibacterial activity against methicillin-resistant Staphylococcus aureus ATCC 33591 incubated for 18 to 24 hrs in presence of 1 mg/ml of pepsin by broth microdilution method; assay type: functional; conditions: time 18-24 hrs
Staphylococcus aureus [15] = experiment: Antibacterial activity against methicillin-resistant Staphylococcus aureus ATCC 33591 incubated for 18 to 24 hrs in presence of 1 mg/ml of trypsin by broth microdilution method; assay type: functional; conditions: time 18-24 hrs
Staphylococcus aureus [16] = experiment: Antibacterial activity against methicillin-resistant Staphylococcus aureus ATCC 33591 incubated for 18 to 24 hrs in presence of 0.5 mg/ml of pepsin by broth microdilution method; assay type: functional; conditions: time 18-24 hrs
Staphylococcus aureus [17] = experiment: Antibacterial activity against methicillin-resistant Staphylococcus aureus ATCC 33591 incubated for 18 to 24 hrs in presence of 0.5 mg/ml of chymotrypsin by broth microdilution method; assay type: functional; conditions: time 18-24 hrs
Staphylococcus aureus [18] = experiment: Antibacterial activity against methicillin-resistant Staphylococcus aureus ATCC 33591 assessed as fold change in MIC incubated for 18 to 24 hrs in presence of MgCl2 by broth microdilution method; assay type: functional; conditions: time 18-24 hrs
Staphylococcus aureus [19] = experiment: Antibacterial activity against methicillin-resistant Staphylococcus aureus ATCC 33591 incubated for 18 to 24 hrs in presence of 2 mg/ml of pepsin by broth microdilution method; assay type: functional; conditions: time 18-24 hrs
Staphylococcus aureus [20] = experiment: Antibacterial activity against drug-resistant Staphylococcus aureus ATCC 25923 incubated for 18 to 24 hrs; assay type: functional; conditions: time 18-24 hrs
Staphylococcus aureus [21] = experiment: Antibacterial activity against gentamicin-resistant Staphylococcus aureus ATCC 25923 incubated for 18 to 24 hrs; assay type: functional; conditions: time 18-24 hrs
Staphylococcus aureus [22] = experiment: Antibacterial activity against ciprofloxacin-resistant Staphylococcus aureus ATCC 25923 incubated for 18 to 24 hrs; assay type: functional; conditions: time 18-24 hrs
Staphylococcus aureus [23] = experiment: Antibacterial activity against polymyxin B-resistant methicillin-resistant Staphylococcus aureus ATCC 33591 incubated for 18 to 24 hrs; assay type: functional; conditions: time 18-24 hrs
Staphylococcus aureus [24] = experiment: Induction of drug resistance in Staphylococcus aureus ATCC 25923 at sub-MIC measured after 2 passages; assay type: functional, organism-based
Staphylococcus aureus [25] = experiment: Antibacterial activity against polymyxin B-resistant Staphylococcus aureus ATCC 25923 incubated for 18 to 24 hrs; assay type: functional; conditions: time 18-24 hrs
Staphylococcus aureus [26] = experiment: Antibacterial activity against drug-resistant methicillin-resistant Staphylococcus aureus ATCC 33591 incubated for 18 to 24 hrs; assay type: functional; conditions: time 18-24 hrs
Staphylococcus aureus [27] = experiment: Antibacterial activity against gentamicin-resistant methicillin-resistant Staphylococcus aureus ATCC 33591 incubated for 18 to 24 hrs; assay type: functional; conditions: time 18-24 hrs
Staphylococcus aureus [28] = experiment: Antibacterial activity against ciprofloxacin-resistant methicillin-resistant Staphylococcus aureus ATCC 33591 incubated for 18 to 24 hrs; assay type: functional; conditions: time 18-24 hrs

`CCCCCCCCCCCC(=O)N[C@@H](CCCNC(=N)N)C(=O)N[C@H](CCCNC(=N)N)C(=O)N[C@H](Cc1c[nH]c2ccccc12)C(=O)O` gave a Retention_time [1] of 19.303 min, an MIC (Staphylococcus aureus [2]) of 8 µM and an MIC (Staphylococcus aureus [3]) of 32 µM. The “fold change (FC)” value (Staphylococcus aureus [4]) was 8, the “fold change (FC)” value (Staphylococcus aureus [5]) was less than 3 and the MIC (Staphylococcus aureus [6]) was greater than 128 µM. The “fold change (FC)” value (Staphylococcus aureus [7]) was 4, the MIC (Staphylococcus aureus [8]) was 4 µM (≈ 2.8 µg/mL) and the MIC [9] was 2 µM (≈ 1.4 µg/mL). For the same compound, the HC10 [10] was 64 µM, the MIC (Staphylococcus aureus [11]) was 4 µM (≈ 2.8 µg/mL) and the MIC (Staphylococcus aureus [12]) was 4 µM (≈ 2.8 µg/mL). It also gave an MIC (Enterococcus faecalis) of 16 µM (≈ 11.2 µg/mL), an MIC (Staphylococcus aureus [13]) of 128 µM and an MIC (Staphylococcus aureus [14]) of 8 µM. The MIC (Staphylococcus aureus [15]) was greater than 128 µM, the MIC (Staphylococcus aureus [16]) was 4 µM and the MIC (Staphylococcus aureus [17]) was 8 µM. The “fold change (FC)” value (Staphylococcus aureus [18]) was less than 3 and the MIC (Staphylococcus aureus [19]) was 16 µM.
Compound `CCCCCCCCCCCC(=O)N[C@@H](CCCNC(=N)N)C(=O)N[C@@H](CCCNC(=N)N)C(=O)N[C@H](Cc1c[nH]c2ccccc12)C(=O)O` has a Retention_time [1] of 18.476 min, an MIC (Staphylococcus aureus [2]) greater than 128 µM and an MIC (Staphylococcus aureus [3]) greater than 128 µM. For the same compound, the “fold change (FC)” value (Staphylococcus aureus [4]) was 8, the “fold change (FC)” value (Staphylococcus aureus [5]) was less than 3 and the MIC (Staphylococcus aureus [6]) was greater than 128 µM. For the same compound, the “fold change (FC)” value (Staphylococcus aureus [7]) was 4, the MIC (Staphylococcus aureus [8]) was 4 µM (≈ 2.8 µg/mL) and the MIC [9] was 2 µM (≈ 1.4 µg/mL). For the same compound, the HC10 [10] was 128 µM, the MIC (Staphylococcus aureus [11]) was 4 µM (≈ 2.8 µg/mL) and the MIC (Staphylococcus aureus [12]) was 4 µM (≈ 2.8 µg/mL). For the same compound, the MIC (Enterococcus faecalis) was 16 µM (≈ 11.2 µg/mL), the MIC (Staphylococcus aureus [13]) was greater than 128 µM and the MIC (Staphylococcus aureus [14]) was 128 µM. The MIC (Staphylococcus aureus [15]) was greater than 128 µM, the MIC (Staphylococcus aureus [16]) was 16 µM and the MIC (Staphylococcus aureus [17]) was greater than 128 µM. For the same compound, the “fold change (FC)” value (Staphylococcus aureus [18]) was less than 3 and the MIC (Staphylococcus aureus [19]) was 128 µM.
In the case of `CN[C@H](CC(C)C)C(=O)N[C@H]1C(=O)N[C@@H](CC(N)=O)C(=O)N[C@H]2C(=O)N[C@H]3C(=O)N[C@H](C(=O)N[C@H](C(=O)O)c4cc(O)cc(O)c4-c4cc3ccc4O)[C@H](O)c3ccc(c(Cl)c3)Oc3cc2cc(c3O[C@@H]2O[C@H](CO)[C@@H](O)[C@H](O)[C@H]2O[C@H]2C[C@](C)(N)[C@H](O)[C@H](C)O2)Oc2ccc(cc2Cl)[C@H]1O` [VANCOMYCIN], the MIC (Staphylococcus aureus [8]) is reported as no more than 0.5 µM, the MIC [9] is reported as 1 µM (≈ 1.45 µg/mL) and the MIC (Staphylococcus aureus [11]) is reported as no more than 0.5 µM. It also gave an MIC (Staphylococcus aureus [12]) of no more than 0.5 µM and an MIC (Enterococcus faecalis) of 2 µM (≈ 2.9 µg/mL).
`CCCCCCCCCCCC(=O)N[C@H](CCCNC(=N)N)C(=O)N[C@H](CCCNC(=N)N)C(=O)N[C@@H](Cc1c[nH]c2ccccc12)C(=O)O` showed a Retention_time [1] of 18.527 min, an MIC (Staphylococcus aureus [2]) of 64 µM and an MIC (Staphylococcus aureus [3]) of 64 µM. The “fold change (FC)” value (Staphylococcus aureus [4]) was 8, the “fold change (FC)” value (Staphylococcus aureus [5]) was less than 3 and the MIC (Staphylococcus aureus [6]) was 64 µM. For the same compound, the “fold change (FC)” value (Staphylococcus aureus [7]) was 8, the MIC (Staphylococcus aureus [8]) was 4 µM (≈ 2.8 µg/mL) and the MIC [9] was 2 µM (≈ 1.4 µg/mL). It also gave an HC10 [10] of 128 µM, an MIC (Staphylococcus aureus [11]) of 4 µM (≈ 2.8 µg/mL) and an MIC (Staphylococcus aureus [12]) of 4 µM (≈ 2.8 µg/mL). It also gave an MIC (Enterococcus faecalis) of 8 µM (≈ 5.59 µg/mL), an MIC (Staphylococcus aureus [13]) of 32 µM and an MIC (Staphylococcus aureus [14]) of 8 µM. It also gave an MIC (Staphylococcus aureus [15]) of 32 µM, an MIC (Staphylococcus aureus [16]) of 4 µM and an MIC (Staphylococcus aureus [17]) of 32 µM. The “fold change (FC)” value (Staphylococcus aureus [18]) was less than 3 and the MIC (Staphylococcus aureus [19]) was 32 µM.
`O=C(O)c1cn(C2CC2)c2cc(N3CCNCC3)c(F)cc2c1=O` [CIPROFLOXACIN] showed an MIC (Staphylococcus aureus [20]) greater than 128 µM, an MIC (Staphylococcus aureus [8]) of 1 µM (≈ 0.331 µg/mL) and an MIC [9] of no more than 0.5 µM. It also gave an MIC (Staphylococcus aureus [21]) of 128 µM (≈ 42.4 µg/mL), an MIC (Staphylococcus aureus [11]) of 1 µM (≈ 0.331 µg/mL) and an MIC (Staphylococcus aureus [22]) of 8.19 mM (≈ 2710 µg/mL). The MIC (Staphylococcus aureus [23]) was greater than 128 µM, the Activity (Staphylococcus aureus [24]) was “Active” and the MIC (Staphylococcus aureus [12]) was 256 µM (≈ 84.8 µg/mL). It also gave an MIC (Staphylococcus aureus [25]) greater than 128 µM, an MIC (Enterococcus faecalis) of 2 µM (≈ 0.663 µg/mL) and an MIC (Staphylococcus aureus [26]) greater than 128 µM. It also gave an MIC (Staphylococcus aureus [27]) of 128 µM (≈ 42.4 µg/mL) and an MIC (Staphylococcus aureus [28]) of 8.19 mM (≈ 2710 µg/mL).
